# According to patent US20260193254A1, “2-OXOQUINAZOLINE CRYSTALLINE FORMS” (IDEAYA Biosciences, Inc., priority 2022, published 2026):
# Marks after values point to notes of the source that are not given here.
# Legend:
# Format in all cases: physicochemical
# [1] = Approximate solubility of solid state Form V at 25° C. and 50° C. (visual observation); conditions: thermodynamic from solid
# Procedure: Maximum volume of each solvent added was 1 mL. Approximate solubility was determined by visual observation.
# [2] = Temperature cycling experiments; conditions: TC8 Acetone/water = 1/1 (v/v) (62 mg/mL), 5-50° C., 6 cycles
# Procedure: After 6 cycles, precipitates were collected at 5° C. by centrifugation. The solid part (wet cake) was investigated by XRPD. When differences were observed, additional investigations were performed (e.g. DSC, TGA etc.).
# [3] = Crystallization at room temperature by slow evaporation; conditions: ambient condition
# Source text: Combined with approximate solubility experiment, solubility samples were filtered by 0.45 μm nylon filter. Obtained solutions were slow evaporated at ambient condition. Solid residues were examined for their polymorphic form.
# [4] = Water activity study; conditions: protected by kapton film
# Source text: These solvent mixtures were saturated with the compound of Formula (I) before addition of the polymorph seeds. […] These solvent mixtures were saturated with the compound of Formula (I) before addition of the polymorph seeds. Obtained suspension was filtered. Solid part (wet cake) was investigated by XRPD.
# [5] = Behavior under compression; conditions: 2 Mpa/2 min, hydraulic press
# Procedure: XRPD characterization was performed to investigate polymorphic behavior under compression.
# [6] = Bulk stability of crystalline forms; conditions: for Purity, Bulk (HPLC): Solid state
# Source text: (§1) Solids obtained after bulk stability study were characterized by XRPD and HPLC.
# [7] = Equilibrium solubility in FeSSIF and FaSSIF; conditions: 24 hours; for Solubility: target concentration 1 mg/mL, HPLC method 1 or 2 (footnote); for impurity in solubility sample: no unit printed for impurity (column head mg/mL)
# Procedure: (§2) Solid part and liquid part were separated by filtration. Solubility was measured by HPLC. Solid part (wet cake) was investigated by XRPD.
# [8] = Equilibrium solubility in SGF (pH 2.0), 0.1 N HCl (pH 1.2) and phosphate buffer (pH 8.0); conditions: 24 hours; for solubility at 24 h: 37 °C, thermodynamic from solid, target concentration 1 mg/mL, HPLC method 2
# Procedure: as §2
# [9] = Intrinsic dissolution rate (IDR) evaluation in FaSSIF; conditions: FaSSIF at 37° C.
# [10] = Bulk stability of crystalline forms; set-up: key: Color A: All No change of color; conditions: Solid state
# Source text: as §1
# [11] = 25° C./92% RH, open container, 1 week
# [12] = 25° C./92% RH, open container, 2 weeks
# [13] = 40° C./75% RH, open container, 1 week
# [14] = 40° C./75% RH, open container, 2 weeks
# [15] = 60° C., tight container, 1 week
# [16] = 60° C., tight container, 2 weeks
# [17] = pH 8 (phosphate buffer), 37° C.
smiles,measurement,setting,value
"Nc1nc(=O)n(-c2ccccc2Cl)c2nc(C(F)(F)F)ccc12 [solid state Form V, 4-Amino-1-(2-chlorophenyl)-7-(trifluoromethyl)pyrido[2,3-d]pyrimidin-2(1H)-one]",solubility at 10 min,"[1]; organic solvent or mixture, SL2 Methanol, 25° C.",15000 to 18000 µg/mL
same,solubility at 10 min,"[1]; organic solvent or mixture, SL2 Methanol, 50° C.",30000 to 35000 µg/mL
same,solubility at 10 min,"[1]; organic solvent or mixture, SL3 Ethanol, 25° C.",7000 to 8000 µg/mL
same,solubility at 10 min,"[1]; organic solvent or mixture, SL3 Ethanol, 50° C.",15000 to 17000 µg/mL
same,solubility at 10 min,"[1]; organic solvent or mixture, SL4 2-Propanol, 25° C.",< 5000 µg/mL
same,solubility at 10 min,"[1]; organic solvent or mixture, SL4 2-Propanol, 50° C.",5000 to 10000 µg/mL
same,solubility at 10 min,"[1]; organic solvent or mixture, SL5 Ethyl acetate, 25° C.",< 5000 µg/mL
same,solubility at 10 min,"[1]; organic solvent or mixture, SL5 Ethyl acetate, 50° C.",< 5000 µg/mL
same,solubility at 10 min,"[1]; organic solvent or mixture, SL6 Isopropyl acetate, 25° C.",< 5000 µg/mL
same,solubility at 10 min,"[1]; organic solvent or mixture, SL6 Isopropyl acetate, 50° C.",< 5000 µg/mL
same,solubility at 10 min,"[1]; organic solvent or mixture, SL7 Acetone, 25° C.",< 5000 µg/mL
same,solubility at 10 min,"[1]; organic solvent or mixture, SL7 Acetone, 50° C.",5000 to 10000 µg/mL
same,solubility at 10 min,"[1]; organic solvent or mixture, SL8 Methyl ethyl ketone, 25° C.",< 5000 µg/mL
same,solubility at 10 min,"[1]; organic solvent or mixture, SL8 Methyl ethyl ketone, 50° C.",< 5000 µg/mL
same,solubility at 10 min,"[1]; organic solvent or mixture, SL9 t-Butyl methyl ether, 25° C.",< 5000 µg/mL
same,solubility at 10 min,"[1]; organic solvent or mixture, SL9 t-Butyl methyl ether, 50° C.",< 5000 µg/mL
same,solubility at 10 min,"[1]; organic solvent or mixture, SL10 Tetrahydrofuran, 25° C.",< 5000 µg/mL
same,solubility at 10 min,"[1]; organic solvent or mixture, SL10 Tetrahydrofuran, 50° C.",< 5000 µg/mL
same,solubility at 10 min,"[1]; organic solvent or mixture, SL11 2-methyl-THF, 25° C.",< 5000 µg/mL
same,solubility at 10 min,"[1]; organic solvent or mixture, SL11 2-methyl-THF, 50° C.",< 5000 µg/mL
same,solubility at 10 min,"[1]; organic solvent or mixture, SL12 Acetonitrile, 25° C.",< 5000 µg/mL
same,solubility at 10 min,"[1]; organic solvent or mixture, SL12 Acetonitrile, 50° C.",< 5000 µg/mL
same,solubility at 10 min,"[1]; organic solvent or mixture, SL13 Heptane, 25° C.",< 5000 µg/mL
same,solubility at 10 min,"[1]; organic solvent or mixture, SL13 Heptane, 50° C.",< 5000 µg/mL
same,solubility at 10 min,"[1]; organic solvent or mixture, SL14 Dichloromethane, 25° C.",< 5000 µg/mL
same,solubility at 10 min,"[1]; organic solvent or mixture, SL14 Dichloromethane, 50° C.",< 5000 µg/mL
same,solubility at 10 min,"[1]; organic solvent or mixture, SL15 Toluene, 25° C.",< 5000 µg/mL
same,solubility at 10 min,"[1]; organic solvent or mixture, SL15 Toluene, 50° C.",< 5000 µg/mL
same,solubility at 10 min,"[1]; SL1 Water, 25° C.",< 5000 µg/mL
same,solubility at 10 min,"[1]; SL1 Water, 50° C.",< 5000 µg/mL
same,Crystalline Form formed by temperature cycling,[2],Form G
same,Crystalline Form formed by slow evaporation,[3]; SE1 Methanol (15 mg/mL),Solid state Form V
same,Crystalline Form formed by slow evaporation,[3]; SE2 Ethanol (7 mg/mL),Form F with low crystalline
same,Crystalline Form formed by slow evaporation,[3]; SE3 2-Propanol (5 mg/mL),Form J (IPA solvate)
same,Crystalline Form formed by slow evaporation,[3]; SE6 Acetone (5 mg/mL),Form G
same,Crystalline Form formed by slow evaporation,[3]; SE7 Methyl ethyl ketone (5 mg/mL),Form G
same,Crystalline Form formed by slow evaporation,[3]; SE9 Tetrahydrofuran (5 mg/mL),Form K
same,Crystalline Form formed by slow evaporation,[3]; SE12 Methanol/Ethyl acetate = 1/1 (v/v) (7 mg/mL),Solid state Form V
same,Crystalline Form formed by slow evaporation,[3]; SE13 Methanol/Acetonitrile = 1/1 (v/v) (11 mg/mL),Solid state Form V
same,Form obtained in water activity study (XRPD),"[4]; AW4 EtOH/water = 0.4/0.6 (v/v) aw = 0.91, 25° C. (4 days)",Form F (protected by kapton film)
same,Form obtained in water activity study (XRPD),"[4]; AW5 EtOH/water = 0.3/0.7 (v/v) aw = 0.93, 25° C. (4 days)",Form F (protected by kapton film)
same,Form obtained in water activity study (XRPD),"[4]; AW6 EtOH/water = 0.2/0.8 (v/v) aw = 0.95, 25° C. (4 days)",Form F (protected by kapton film)^a
same,Form obtained in water activity study (XRPD),"[4]; AW7 EtOH/water = 0.1/0.9 (v/v) aw = 0.97, 25° C. (4 days)",Form E (protected by kapton film)
same,Form obtained in water activity study (XRPD),"[4]; AW8 MeOH aw = 0.0, 25° C. (4 days)",Form C (protected by kapton film)
same,Form obtained in water activity study (XRPD),"[4]; AW9 MeOH/water = 0.970/0.030 (v/v) aw = 0.1, 25° C. (4 days)",Form F (protected by kapton film)
same,Form obtained in water activity study (XRPD),"[4]; AW10 MeOH/water = 0.930/0.070 (v/v) aw = 0.2, 25° C. (4 days)",Form F (protected by kapton film)
same,Form obtained in water activity study (XRPD),"[4]; AW11 MeOH/water = 0.893/0.107 (v/v) aw = 0.3, 25° C. (4 days)",Form F (protected by kapton film)
same,Form obtained in water activity study (XRPD),"[4]; AW12 MeOH/water = 0.775/0.225 (v/v) aw = 0.5, 25° C. (4 days)",Form F (protected by kapton film)
same,Form obtained in water activity study (XRPD),"[4]; AW13 MeOH/water = 0.580/0.420 (v/v) aw = 0.7, 25° C. (4 days)",Form F (protected by kapton film)
same,Form obtained in water activity study (XRPD),"[4]; AW14 MeOH/water = 0.4/0.6 (v/v) aw = 0.81, 25° C. (4 days)",Form E (protected by kapton film)
same,Form obtained in water activity study (XRPD),"[4]; AW15 MeOH/water = 0.3/0.7 (v/v) aw = 0.86, 25° C. (4 days)",Form E (protected by kapton film)
same,Form obtained in water activity study (XRPD),"[4]; AW16 MeOH/water = 0.2/0.8 (v/v) aw = 0.91, 25° C. (4 days)",Form E (protected by kapton film)
same,Form obtained in water activity study (XRPD),"[4]; AW17 MeOH/water = 0.1/0.9 (v/v) aw = 0.96, 25° C. (4 days)",Form E (protected by kapton film)
same,Form obtained in water activity study (XRPD),"[4]; AW18 Water aw = 1.0, 25° C. (4 days)",Form E (protected by kapton film)^b
same,XRPD after compression,[5],No form change
same,"Purity, Bulk (HPLC)",[6]; [11],98.9%
same,"Purity, Bulk (HPLC)",[6]; [12],98.9%
same,"Purity, Bulk (HPLC)",[6]; [13],98.9%
same,"Purity, Bulk (HPLC)",[6]; [14],98.7%
same,"Purity, Bulk (HPLC)",[6]; [15],98.8%
same,"Purity, Bulk (HPLC)",[6]; [16],98.9%
same,Initial purity,"[6]; before stress, HPLC",98.9%
same,chemical stability and physical stability (bulk stability),"[6]; stressed under 25° C./92 RH, 40% C/75% RH and 60° C., XRPD and HPLC",good chemical stability and physical stability
same,final pH,"[7]; FaSSIF, pH 6.5, 37° C.",6.5
same,Solubility,"[7]; FaSSIF, pH 6.5, 37° C.",0.10 mg/mL
same,impurity in solubility sample,"[7]; FaSSIF, pH 6.5, 37° C.",no impurity
same,final pH,"[7]; FeSSIF, pH 5.0, 37° C.",5.0
same,Solubility,"[7]; FeSSIF, pH 5.0, 37° C.",0.26 mg/mL
same,impurity in solubility sample,"[7]; FeSSIF, pH 5.0, 37° C.",no impurity
same,solubility at 24 h,"[8]; 0.1 N HCl, pH 1.2, simulated gastric fluid, pH 1.2 (0.1N HCl)",150 µg/mL
same,final pH,"[8]; SGF, pH 2.0, 37° C.",2.3
same,final pH,"[8]; pH 1.2 (0.1N HCl), 37° C.",1.3
same,XRPD of solid after solubility test,[8]; [17],Solid state Form V
same,final pH,[8]; [17],8.0
same,impurity in solubility sample,[8]; [17],no impurity
same,solubility at 24 h,"[8]; phosphate buffer, pH 8, aqueous buffer, pH 8 (phosphate buffer)",40 µg/mL
same,solubility at 24 h,"[8]; simulated gastric fluid (SGF), pH 2, simulated gastric fluid, SGF, pH 2.0, 37° C.",70 µg/mL
same,XRPD after IDR,[9]; disc surface after 120 min,No form change
same,Concentration detected during IDR test (Comments),"[9]; for Form V and Form A remains same during the whole process, LOQ for Form T and amorphous form",(0.006 mg/mL)
same,Color,[10]; [11],A
same,Color,[10]; [12],A
same,Color,[10]; [13],A
same,Color,[10]; [14],A
same,Color,[10]; [15],A
same,Color,[10]; [16],A
